Measurements taken from article PMC12304827 (British Journal of Clinical Pharmacology, 2025).
Where two headings read alike, the source gives them in different places.

Key:
[1] = OC study 1: EE and LN PK with/without ritlecitinib 200 mg QD; assay type: in vivo, human; settings: for AUC(0-inf) / Cmax / AUC(0-t): female, human, plasma, oral, healthy females; for AUC(0-inf): AUCinf; for AUC(0-t): AUClast
[2] = OC study 2: EE and LN PK with/without ritlecitinib 50 mg QD; assay type: in vivo, human; settings: for AUC(0-inf) / AUC(0-t) / Cmax: female, human, plasma, oral; for Cmax: adjusted geometric mean (test), 1 Portia tablet on Day 10 of ritlecitinib 50 mg QD × 13 days, healthy females
CYP2B6 = target: T1, CYP2B6 (Homo sapiens, UniProt P20813); settings: for Effect of ritlecitinib on efavirenz AUC0–72 and Cmax (in words): ritlecitinib 200 mg QD
T1 sequence (P20813 1-491): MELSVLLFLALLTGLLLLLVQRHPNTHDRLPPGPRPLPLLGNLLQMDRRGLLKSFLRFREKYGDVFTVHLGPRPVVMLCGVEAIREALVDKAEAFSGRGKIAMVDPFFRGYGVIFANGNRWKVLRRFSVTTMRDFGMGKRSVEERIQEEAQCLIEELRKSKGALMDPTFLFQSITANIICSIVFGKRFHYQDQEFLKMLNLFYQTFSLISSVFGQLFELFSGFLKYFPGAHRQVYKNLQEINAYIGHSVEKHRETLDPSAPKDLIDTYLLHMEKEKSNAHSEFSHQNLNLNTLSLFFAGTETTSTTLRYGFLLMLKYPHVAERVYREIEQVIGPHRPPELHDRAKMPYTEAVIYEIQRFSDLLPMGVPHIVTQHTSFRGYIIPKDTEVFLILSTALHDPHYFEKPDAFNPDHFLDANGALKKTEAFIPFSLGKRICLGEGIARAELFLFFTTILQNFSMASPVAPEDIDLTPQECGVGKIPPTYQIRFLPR

CYP3A [3] = assay: Midazolam and efavirenz DDI study: midazolam PK with/without ritlecitinib
CYP1A2 [4] = settings: cited from earlier work
[5] = cited from earlier work
CYP1A2 [6] = target: T2, CYP1A2 (Homo sapiens, UniProt P05177); assay: CYP time-dependent inhibition in human liver microsomes; assay type: in vitro ADME
T2 sequence (P05177 1-516): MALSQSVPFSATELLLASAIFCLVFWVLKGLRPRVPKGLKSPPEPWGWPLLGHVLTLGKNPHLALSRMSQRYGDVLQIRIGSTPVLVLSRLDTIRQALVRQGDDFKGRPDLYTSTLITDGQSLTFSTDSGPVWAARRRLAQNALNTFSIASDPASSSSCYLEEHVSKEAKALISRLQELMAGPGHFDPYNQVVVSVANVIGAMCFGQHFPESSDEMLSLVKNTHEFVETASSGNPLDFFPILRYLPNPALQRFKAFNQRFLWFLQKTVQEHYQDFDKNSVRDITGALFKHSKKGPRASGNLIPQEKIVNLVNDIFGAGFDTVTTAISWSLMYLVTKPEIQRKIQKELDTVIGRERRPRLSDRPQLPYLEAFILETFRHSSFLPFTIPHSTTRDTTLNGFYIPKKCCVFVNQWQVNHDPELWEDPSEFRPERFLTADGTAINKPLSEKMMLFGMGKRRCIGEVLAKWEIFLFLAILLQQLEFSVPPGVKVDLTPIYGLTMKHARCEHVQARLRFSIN

CYP3A4/5 = assay: as above; assay type: in vitro ADME
CYP = assay: Rifampicin DDI study: ritlecitinib PK with/without rifampicin; assay type: in vivo, human
[7] = test system: organic cation transporter 1 (OCT1); settings: cited from earlier work
CYP3A [8] = assay: Itraconazole DDI study: ritlecitinib PK with/without itraconazole; assay type: in vivo, human
[9] = cited from earlier work; remark: listed apart in the source
CYP1A2 [10] = assay: Caffeine DDI study: caffeine PK with/without ritlecitinib; assay type: in vivo, human; settings: from caffeine DDI at ritlecitinib 200 mg QD
[11] = adjusted geometric mean (reference), 1 Portia tablet (EE 30 μg and LN 150 μg) alone
[12] = adjusted geometric mean (test), 1 Portia tablet (EE 30 μg and LN 150 μg) on Day 10 of ritlecitinib 200 mg QD × 11 days
[13] = multiple ritlecitinib 200 mg QD doses
[14] = efavirenz with ritlecitinib 200 mg QD × 11 days vs without
[15] = efavirenz with ritlecitinib 200 mg QD × 11 days vs without, listed as efavirenz
[16] = midazolam with ritlecitinib 200 mg QD × 11 days vs without
[17] = midazolam with ritlecitinib 200 mg QD × 11 days vs without, listed as midazolam
[18] = caffeine single dose with ritlecitinib 200 mg QD × 9 days, plasma
[19] = caffeine with ritlecitinib 200 mg QD × 9 days vs alone
[20] = caffeine with ritlecitinib 200 mg QD × 9 days vs alone, listed as caffeine
[21] = ritlecitinib 50 mg with rifampicin 600 mg QD × 8 days vs alone
[22] = ritlecitinib 50 mg with rifampicin 600 mg QD × 8 days vs alone, listed as ritlecitinib
[23] = multiple 200-mg doses of itraconazole, ritlecitinib 30 mg
[24] = ritlecitinib 30 mg with itraconazole 200 mg QD × 5 days vs alone

C#C[C@]1(O)CC[C@H]2[C@@H]3CCc4cc(O)ccc4[C@H]3CC[C@@]21C [EE, ethinyl oestradiol]
AUC(0-inf) [1, 11]: 0.8 ng·h/mL
AUC(0-inf) [1, 12]: 0.656 ng·h/mL
Cmax [1, 12]: 0.0606 ng/mL
Decrease of AUCinf following coadministration of ritlecitinib [1, 13]: ≈ 18%
Decrease of Cmax following coadministration of ritlecitinib [1, 13]: ≈ 12%
Effect of ritlecitinib 200 mg QD on PK of OC steroid (in words) ([1]; ritlecitinib 200 mg QD): decreased
AUC(0-inf) ([2]; 50 mg): 0.733 ng·h/mL
AUC(0-t) ([2]; 50 mg): 0.605 ng·h/mL
Cmax ([2]; 50 mg): 0.0638 ng/mL
AUC(0-inf) ([2]; 1 Portia tablet): 0.747 ng·h/mL
AUC(0-t) ([2]; 1 Portia tablet): 0.658 ng·h/mL
Effect of ritlecitinib 50 mg QD on PK of OC steroid (in words) [2]: did not produce a clinically meaningful change
Effect of ritlecitinib 50 mg QD on PK of OC steroid (in words) ([2]; listed as ethinyl oestradiol): no relevant change

O=C1Nc2ccc(Cl)cc2[C@@](C#CC2CC2)(C(F)(F)F)O1 [Efavirenz, efavirenz]
AUC0–72, ratio (test/reference) of adjusted geometric means (90% CI) (CYP2B6; [14]): 99.7 (95.2–104.4) %
AUClast, ratio (test/reference) of adjusted geometric means (90% CI) (CYP2B6; [14]): 99.7 (95.3–104.4) %
Cmax, ratio (test/reference) of adjusted geometric means (90% CI) (CYP2B6; [14]): 88.2 (77.1–101.0) %
AUC0–72, ratio (test/reference) of adjusted geometric means (90% CI) (CYP2B6; [15]): 99.7%
Cmax, ratio (test/reference) of adjusted geometric means (90% CI) (CYP2B6; [15]): 88.2%
Effect of ritlecitinib on efavirenz AUC0–72 and Cmax (in words) (CYP2B6): similar
Effect of ritlecitinib on efavirenz AUC0–72 and Cmax (in words) (CYP2B6; listed as efavirenz): did not produce clinically meaningful changes

C#C[C@]1(O)CC[C@H]2[C@@H]3CCC4=CC(=O)CC[C@@H]4[C@H]3CC[C@@]21CC [LN, levonorgestrel]
AUC(0-t) [1, 11]: 23.8 ng·h/mL
AUC(0-t) [1, 12]: 26.8 ng·h/mL
Cmax [1, 11]: 2.94 ng/mL
Cmax [1, 12]: 3.03 ng/mL
AUC(0-t) ([2]; 50 mg): 29.6 ng·h/mL
Cmax ([2]; 50 mg): 2.32 ng/mL
AUC(0-t) ([2]; 1 Portia tablet): 33.7 ng·h/mL

Cc1ncc2n1-c1ccc(Cl)cc1C(c1ccccc1F)=NC2 [Midazolam, midazolam]
AUCinf, ratio (test/reference) of adjusted geometric means (90% CI) (CYP3A [3]; [16]): 269.4 (216.1–335.9) %
AUClast, ratio (test/reference) of adjusted geometric means (90% CI) (CYP3A [3]; [16]): 269.3 (215.8–336.1) %
Cmax, ratio (test/reference) of adjusted geometric means (90% CI) (CYP3A [3]; [16]): 180.8 (148.1–220.6) %
AUCinf, ratio (test/reference) of adjusted geometric means (90% CI) (CYP3A [3]; [17]): 269.4%
Cmax, ratio (test/reference) of adjusted geometric means (90% CI) (CYP3A [3]; [17]): 180.8%
Fold increase of midazolam AUCinf in the presence of ritlecitinib (CYP3A [3]; ritlecitinib 200 mg QD): 2.7 fold
Fold increase of midazolam Cmax in the presence of ritlecitinib (CYP3A [3]; ritlecitinib 200 mg QD): 1.8 fold
Increase of midazolam AUCinf in the presence of ritlecitinib (CYP3A [3]; ritlecitinib 200 mg QD): ≈ 169%
Fold increase of midazolam AUCinf in the presence of ritlecitinib (CYP3A [3]; ritlecitinib 200 mg QD, listed as midazolam): ≈ 2.7 fold

Cn1c(=O)c2c(ncn2C)n(C)c1=O [Caffeine, caffeine]
AUCinf, adjusted geometric mean (reference) (CYP1A2 [4]; caffeine alone, plasma): 15 660 ng h/mL
AUClast, adjusted geometric mean (reference) (CYP1A2 [4]; caffeine alone, plasma): 14 780 ng h/mL
Cmax, adjusted geometric mean (reference) (CYP1A2 [4]; caffeine alone, plasma): 2162 ng/mL
AUCinf, adjusted geometric mean (test) (CYP1A2 [4]; [18]): 41 530 ng h/mL
AUClast, adjusted geometric mean (test) (CYP1A2 [4]; [18]): 38 580 ng h/mL
Cmax, adjusted geometric mean (test) (CYP1A2 [4]; [18]): 2372 ng/mL
AUClast, ratio (test/reference) of adjusted geometric means (90% CI) (CYP1A2 [4]; [19]): 261.0 (232.5−293.1) %
Cmax, ratio (test/reference) of adjusted geometric means (90% CI) (CYP1A2 [4]; [19]): 109.7 (103.9−115.9) %
AUCinf, ratio (test/reference) of adjusted geometric means (90% CI) (CYP1A2 [4]; [20]): 265.1%
Cmax, ratio (test/reference) of adjusted geometric means (90% CI) (CYP1A2 [4]; [20]): 109.7%
Fold increase of caffeine AUCinf by ritlecitinib (CYP1A2 [4]; ritlecitinib 200 mg QD): ≈ 2.7 fold
Fold increase of caffeine Cmax by ritlecitinib (CYP1A2 [4]; ritlecitinib 200 mg QD): ~1.1 fold
Increase of caffeine AUCinf in the presence of ritlecitinib (CYP1A2 [4]; ritlecitinib 200 mg QD): ≈ 165%
Increase of caffeine Cmax in the presence of ritlecitinib (CYP1A2 [4]; ritlecitinib 200 mg QD): ≈ 10%

C=CC(=O)N1C[C@H](Nc2ncnc3[nH]ccc23)CC[C@@H]1C [Ritlecitinib, ritlecitinib]
Contribution of any single pathway to metabolism [5]: ≤ 25%
Predicted collective contribution of CYPs to metabolic disposition [5]: ≈ 47%
Predicted contribution of glutathione conjugation to metabolic disposition [5]: ≈ 24%
Classification as clinical CYP3A inhibitor (CYP3A [3]; from midazolam DDI at ritlecitinib 200 mg QD): moderate inhibitor
Time-dependent inhibition of CYP1A2 in vitro (in words) (CYP1A2 [6]): time dependent inhibitor
Time-dependent inhibition of CYP3A in vitro (in words) (CYP3A4/5): time dependent inhibitor
Decrease of ritlecitinib AUCinf with rifampicin (CYP; multiple rifampicin doses, ritlecitinib 50 mg): ≈ 45%
AUCinf, ratio (test/reference) of adjusted geometric means (90% CI) (CYP; [21]): 55.8 (51.9–59.9) %
AUClast, ratio (test/reference) of adjusted geometric means (90% CI) (CYP; [21]): 55.7 (51.9–59.7) %
Cmax, ratio (test/reference) of adjusted geometric means (90% CI) (CYP; [21]): 75.1 (63.3–89.1) %
AUCinf, ratio (test/reference) of adjusted geometric means (90% CI) (CYP; [22]): 55.8%
Cmax, ratio (test/reference) of adjusted geometric means (90% CI) (CYP; [22]): 75.1%
Clinical relevance of exposure change with rifampicin (in words) (CYP; typical exposure range 0.5- to 2-fold of mean exposure): not decreased to clinically relevant levels
Inhibition of OCT1 (in words) [7]: inhibitor
AUC(0-inf) (CYP3A [8]; human, plasma, oral, 30 mg): 268 ng·h/mL
AUC(0-t) (CYP3A [8]; human, plasma, oral, 30 mg): 264 ng·h/mL
Cmax (CYP3A [8]; human, plasma, oral, 30 mg): 153 ng/mL
Effect of itraconazole on ritlecitinib Cmax (in words) (CYP3A [8]; [23]): similar
Increase of ritlecitinib AUCinf with itraconazole (CYP3A [8]; [23]): ≈ 15%
AUCinf, ratio (test/reference) of adjusted geometric means (90% CI) (CYP3A [8]; [24]): 115.1 (104.6–126.7) %
AUClast, ratio (test/reference) of adjusted geometric means (90% CI) (CYP3A [8]; [24]): 115.1 (104.4–126.7) %
Cmax, ratio (test/reference) of adjusted geometric means (90% CI) (CYP3A [8]; [24]): 102.5 (82.8–127.0) %
Half-life (t½) of ritlecitinib ([9]; quoted for the study design, ref previous studies): < 2 h
Dose proportionality of exposure (in words) ([9]; up to 200 mg): approximately dose‐proportionally
Classification as clinical CYP1A2 inhibitor (CYP1A2 [10]): moderate inhibitor
